Data: patent publication US5677459A, “Methods for the preparation of modulators of acetylcholine receptors” (Sibia Neurosciences, Inc., priority 1995, dated 1997)
Like-named read-outs stand apart in the source and are kept apart here.

Legend:
[1] = target: muscarinic acetylcholine receptors; test: ^3 H-QNB (quinuclidinyl benzilate) binding/displacement, rat cerebral membranes; conditions: ^3 H-QNB 60 pM, rat cerebral membranes
[2] = tested on: ^3 H-Norepinephrine release, rat hippocampus slices; test: Ligand-stimulated ^3 H-norepinephrine release from rat hippocampus slices; assay type: cell-based; conditions: in vitro slices, 300 μM
[3] = tested on: ^3 H-Norepinephrine release, rat thalamus slices; test: Ligand-stimulated ^3 H-norepinephrine release from rat thalamus slices; assay type: cell-based; conditions: in vitro slices, 300 μM
[4] = tested on: ^3 H-Norepinephrine release, rat prefrontal cortex slices; test: Ligand-stimulated ^3 H-norepinephrine release from rat prefrontal cortex slices; assay type: cell-based; conditions: in vitro slices, 300 μM
Protocol: Measurement of ^3 H-dopamine release from rat striatal slices was performed according to the method of Sacaan et al. (J. Neurochem. 59:245 (1992)). Male Sprague-Dawley rats (250-300 g) were decapitated and the striata or olfactory tubercles dissected quickly on a cold glass surface. The tissue was chopped to a thickness of 300 μm with a McIlwain tissue chopper. After chopping again at right angles the tissue was dispersed and incubated for 10 min. at 37° C. in oxygenated Kreb's buffer. ^3 H-Dopamine (40 Ci/mmol, NEN- Dupont, Boston, Mass.) was added (50 nM) and the tissue was incubated for 30 min. in Kreb's buffer containing 10 μM pargyline and 0.5 mM ascorbic acid. Aliquots of the minced tissue were then transferred to chambers of a Brandel Superfusion system in which the tissue was supported on Whatman GF/B filter discs. The tissue was then superfused with buffer at a constant flow rate of 0.3 ml/min by means of a Brandel peristaltic pump. The perfusate was collected in plastic scintillation vials in 3-min fractions, and the radioactivity was estimated by scintillation spectrophotometry. The superfusate for the first 120 min was discarded. After two baseline fractions had been collected, the superfusion buffer was switched to fresh buffer with or without compound of interest. At the end of the experiment the filter and the tissue were removed, and the radiolabeled neurotransmitter content was estimated after extraction into scintillation fluid. The fractional efflux of radiolabeled neurotransmitter was estimated as the amount of radioactivity in the perfusate fraction relative to the total amount in the tissue.
Following essentially the same procedure as set forth above, the amount of ^3 H-norepinephrine released from rat hippocampus, thalamus and prefrontal cortex slices superfused with buffer containing (or lacking) compounds of interest was also measured.
Results of studies of the effects of an invention compound (as compared to the effect of nicotine) on the release of neurotransmitters from rat brain slices are presented in Table II. Results presented in Part A of the Table are expressed as the percent fractional release and results presented in Part B of the Table are expressed as a percentage, relative to nicotine response.

[5] = tested on: ^3 H-Dopamine release, rat olfactory tubercles; test: Ligand-stimulated ^3 H-dopamine release from rat olfactory tubercles; assay type: cell-based; conditions: in vitro slices, 300 μM
[6] = tested on: rats with unilateral 6-hydroxydopamine lesions of the nigrostriatal dopamine pathway; assay type: in vivo, rat (male Sprague-Dawley); conditions: 20 mg/kg, s.c., per one hour interval
Protocol: Selective lesions of the brain dopamine pathway using the neurotoxin 6-hydroxydopamine (6-OHDA) in rats can be used as an experimental approach to Parkinson's disease. Unilateral lesions of the nigrostriatal dopamine pathway induce a postural asymmetry which becomes manifested as rotation when the animals are activated by dopamine releasers or dopamine agonists. When amphetamine and other stimulant drugs that induce pre-synaptic release of dopamine from intact nerve terminals are administered, the rats rotate in a direction ipsilateral to the lesion. In contrast, when the rats are injected with post-synaptic dopamine receptor agonists, such as apomorphine, they turn in a contralateral direction, due to the development of supersensitive dopamine receptors in the lesioned side. Thus, the 6-OHDA model can be used to determine if a suspected dopaminergic agent is active, and to differentiate whether such action is pre- or post-synaptic.
The effects of invention compounds on rotational behavior in 6-hydroxydopamine denervated rats were evaluated using the procedure of Ungerstedt and Arbutknott, Brain Res. 24:485-493 (1970). Male Sprague-Dawley rats (Zivic Miller) weighing 170-200 gm were used in the 6-OHDA procedure. The ascending nigrostriatal dopamine pathway was lesioned by unilateral stereotaxic injection of 6-OHDA (8.0 μg) into one substantia nigra. All injections of 6-OHDA were preceded by desmethylimipramine (25 mg/kg i.p.) and pargyline (75 mg/kg i.p.) approximately 30 minutes prior to undergoing stereotaxic surgery for 6-OHDA infusion into the substantia nigra. After one week of recovery from surgery, the effectiveness of the lesions was verified by noting the response of the animals to apomorphine (0.2 mg/kg, s.c.). Only rats with a minimum rate of 80 contralateral turns per 30 minutes (a sign of more than 80-90% dopamine depletion after a 6-OHDA lesion) were used. Two weeks later, the selected rats were tested with invention and reference compounds using an automated rotometer system to record the number and direction of rotations. In order to distinguish spontaneous (non-specific)rotations from induced rotations (specific to the effect of the drug), each rat was used as its own control, employing the following procedure:
The rat was placed in the rotometer system for acclimatation for 15 minutes, the vehicle administered subcutaneously, the rat's rotations recorded for one hour, then test compound was administered s.c. and rotations again recorded for one hour. The number of ipsilateral rotations induced by vehicle was then compared to the number of ipsilateral rotations induced by test compound. Statistical analysis of the data was carried out using Student's t-test (paired).

rats = test: Locomotor activity assay; assay type: in vivo, rat (male Sprague-Dawley); conditions: Rattus norvegicus, sc, 20 mg/kg, s.c.
[7] = 1 h, 0-60 min, read-out: Ambulation (cross overs), percent of change from control
[8] = 1 h, 0-60 min, read-out: General Activity (beam breaks), percent of change from control
[9] = 2 h, 60-120 min, read-out: General Activity (beam breaks), percent of change from control
[10] = 2 h, 60-120 min, read-out: Ambulation (cross overs), percent of change from control

| Compound | IC50 [1] [µM] | percent fractional release, ^3 H-Norepinephrine, Hippocampus [2] [%] | percent fractional release, ^3 H-Norepinephrine, Thalamus [3] [%] | percent fractional release, ^3 H-Norepinephrine, Prefrontal Cortex [4] [%] | percent fractional release, ^3 H-Dopamine, Olfactory Tubercles [5] [%] | Percent change from control (ipsilateral rotations) [6] | change in vivo at 20 mg/kg (rats; [7]) [%] | change in vivo at 20 mg/kg (rats; [8]) [%] | change in vivo at 20 mg/kg (rats; [9]) [%] | change in vivo at 20 mg/kg (rats; [10]) [%] |
| --- | --- | --- | --- | --- | --- | --- | --- | --- | --- | --- |
| C#Cc1cncc(C2CCCN2C)c1.O=C(O)/C=C/C(=O)O (racemic) [R^5 = ethynyl (racemic), 5-Ethynyl-3-(1-methyl-2-pyrrolidinyl)pyridine fumarate] | 10.1 | 0.69 | 0.31 | 0.97 | 6.68 | +406% | 631 | 509 | 628 |  |
| CN1CCCC1c1cncc(-c2ccc(O)c(Cl)c2)c1.O=C(O)/C=C/C(=O)O (stereo not drawn) [R^5 = 3-chloro-4-hydroxyphenyl, 5-(4-hydroxy-3-chlorophenyl)-3-(1-methyl-2-pyrrolidinyl)pyridine fumarate] | > 10 | 2.5 | 3.23 | 2.94 | 11.4 | -40% | 63 | 68 | -17 | -36 |
| CN1CCCC1c1cncc(-c2cccc(Cl)c2)c1.O=C(O)/C=C/C(=O)O (stereo not drawn) [R^5 = 3-chlorophenyl, 5-(3-Chlorophenyl)-3-(1-methyl-2-pyrrolidinyl) pyridine fumarate] | 3.7 | 1.45 | 1.48 | 1.7 | 3.25 | +62% | 48 | 70 | 220 | 268 |
| COc1ccc(-c2cncc(C3CCCN3C)c2)cc1F.O=C(O)/C=C/C(=O)O (stereo not drawn) [R^5 = 3-fluoro-4-methoxyphenyl, 5-(3-Fluoro-4-methoxyphenyl)-3-(1-methyl-2-pyrrolidinyl)pyridine fumarate] | 30.5 | 0.73 | 1.75 | 2.0 | 2.3 | -3% | 58 | 78 | 202 | 268 |
